From patent publication US10750743B2, “Pyridazinone herbicides” (E.I. DU PONT DE NEMOURS AND COMPANY, priority 2015, dated 2020)

What was measured:
Assay type in all cases: in vivo
[1] = test system: barnyardgrass (Echinochloa crus-galli); assay: Test A preemergence, directed soil spray, visual injury rating; conditions: 0 is no effect, 100 is complete control
Procedure, shortened: (§1)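 Injury ratings, 0 (no effect) to 100 (complete control), were scored visually versus untreated plants roughly 10 d after treatment under greenhouse conditions. Treatments used surfactant-containing solvent formulations, sprayed onto soil preemergence or onto one- to two-leaf seedlings (2-10 cm) postemergence, grown in a loam-sand mix.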

[2] = test system: foxtail, giant (giant foxtail, Setaria faberii); assay: as above; conditions: 0 is no effect, 100 is complete control
Procedure, shortened: as §1

kochia (Kochia scoparia) [3] = assay: as above; conditions: 0 is no effect, 100 is complete control
Procedure, shortened: as §1

[4] = test system: pigweed (Amaranthus retroflexus); assay: as above; conditions: 0 is no effect, 100 is complete control
Procedure, shortened: as §1

[5] = test system: ragweed (common ragweed, Ambrosia elatior); assay: as above; conditions: 0 is no effect, 100 is complete control
Procedure, shortened: as §1

[6] = test system: ryegrass, It. (Italian ryegrass, Lolium multiflorum); assay: as above; conditions: 0 is no effect, 100 is complete control
Procedure, shortened: as §1

[7] = test system: barnyardgrass (Echinochloa crus-galli); assay: Test B flooded paddy test, visual rating; conditions: Flood, 250 g ai/ha, applied to paddy water, rated after 13 to 15 d
Procedure, shortened: (§2)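 Ratings use a 0-100 visual scale, where 100 is complete control, and compare treated plants with controls after 13 to 15 d of greenhouse growth. Compound went straight into paddy water kept 3 cm over the soil surface, applied to seedlings at the 2-leaf stage.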

[8] = test system: ducksalad (Heteranthera limosa); assay: Test B flooded paddy test, visual rating; conditions: Flood, 250 g ai/ha, applied to paddy water, rated after 13 to 15 d
Procedure, shortened: as §2

rice (Oryza sativa) = assay: Test B flooded paddy test, visual rating; conditions: Flood, 250 g ai/ha, applied to paddy water, rated after 13 to 15 d
Procedure, shortened: as §2

[9] = test system: sedge, umbrella (small-flower umbrella sedge, Cyperus difformis); assay: Test B flooded paddy test, visual rating; conditions: Flood, 250 g ai/ha, applied to paddy water, rated after 13 to 15 d
Procedure, shortened: as §2

[10] = test system: barnyardgrass (Echinochloa crus-galli); assay: Test A postemergence application, visual injury rating; conditions: 0 to 100 scale, 0 no effect, 100 complete control
Procedure, shortened: as §1

[11] = test system: blackgrass (Alopecurus myosuroides); assay: as above; conditions: 0 to 100 scale, 0 no effect, 100 complete control
Procedure, shortened: as §1

corn (Zea mays) = assay: as above; conditions: 0 to 100 scale, 0 no effect, 100 complete control
Procedure, shortened: as §1

[12] = test system: foxtail, giant (giant foxtail, Setaria faberii); assay: as above; conditions: 0 to 100 scale, 0 no effect, 100 complete control
Procedure, shortened: as §1

[13] = test system: galium (catchweed bedstraw, Galium aparine); assay: as above; conditions: 0 to 100 scale, 0 no effect, 100 complete control
Procedure, shortened: as §1

kochia (Kochia scoparia) [14] = assay: as above; conditions: 0 to 100 scale, 0 no effect, 100 complete control
Procedure, shortened: as §1

[15] = test system: pigweed (Amaranthus retroflexus); assay: as above; conditions: 0 to 100 scale, 0 no effect, 100 complete control
Procedure, shortened: as §1

[16] = test system: ragweed (common ragweed, Ambrosia elatior); assay: as above; conditions: 0 to 100 scale, 0 no effect, 100 complete control
Procedure, shortened: as §1

[17] = test system: ryegrass, It. (Italian ryegrass, Lolium multiflorum); assay: as above; conditions: 0 to 100 scale, 0 no effect, 100 complete control
Procedure, shortened: as §1

[18] = test system: wheat (Triticum aestivum); assay: as above; conditions: 0 to 100 scale, 0 no effect, 100 complete control
Procedure, shortened: as §1

SMILES | Plant response rating (0 to 100 scale), Barnyardgrass ([1]; 125 g ai/ha) | Plant response rating (0 to 100 scale), Foxtail, Giant ([2]; 125 g ai/ha) | Plant response rating (0 to 100 scale), Kochia (kochia (Kochia scoparia) [3]; 125 g ai/ha) | Plant response rating (0 to 100 scale), Pigweed ([4]; 125 g ai/ha) | Plant response rating (0 to 100 scale), Ragweed ([5]; 125 g ai/ha) | Plant response rating (0 to 100 scale), Ryegrass, It. ([6]; 125 g ai/ha) | Barnyardgrass plant response rating (0 to 100 scale, 0 is no effect, 100 is complete control) [7] | Ducksalad plant response rating (0 to 100 scale, 0 is no effect, 100 is complete control) [8] | Rice plant response rating (0 to 100 scale, 0 is no effect, 100 is complete control) (rice (Oryza sativa)) | Sedge, Umbrella plant response rating (0 to 100 scale, 0 is no effect, 100 is complete control) [9] | Barnyardgrass plant response rating ([10]; 125 g ai/ha) | Blackgrass plant response rating ([11]; 125 g ai/ha) | Corn plant response rating (corn (Zea mays); 125 g ai/ha) | Foxtail, Giant plant response rating ([12]; 125 g ai/ha) | Galium plant response rating ([13]; 125 g ai/ha) | Kochia plant response rating (kochia (Kochia scoparia) [14]; 125 g ai/ha) | Pigweed plant response rating ([15]; 125 g ai/ha) | Ragweed plant response rating ([16]; 125 g ai/ha) | Ryegrass, It. plant response rating ([17]; 125 g ai/ha) | Wheat plant response rating ([18]; 125 g ai/ha) | other results
COC(=O)Oc1c(C)nn(C)c(=O)c1-c1c(C)ccc2cc(C)oc12 [Compound 17] | 0 | 10 | 100 | 100 | 90 | 90 | 0 | 0 | 0 | 0 | 20 | 40 | 0 | 50 | 100 | 90 | 100 | 80 | 100 | 0 | Plant response rating (0 to 100 scale), Barnyardgrass ([1]; 31 g ai/ha): 0; Plant response rating (0 to 100 scale), Foxtail, Giant ([2]; 31 g ai/ha): 0; Plant response rating (0 to 100 scale), Kochia (kochia (Kochia scoparia) [3]; 31 g ai/ha): 40; Plant response rating (0 to 100 scale), Pigweed ([4]; 31 g ai/ha): 30; Plant response rating (0 to 100 scale), Ragweed ([5]; 31 g ai/ha): 30; Plant response rating (0 to 100 scale), Ryegrass, It. ([6]; 31 g ai/ha): 40; Barnyardgrass plant response rating ([10]; 31 g ai/ha): 10; Blackgrass plant response rating ([11]; 31 g ai/ha): 10; Corn plant response rating (corn (Zea mays); 31 g ai/ha): 0; Foxtail, Giant plant response rating ([12]; 31 g ai/ha): 20; Galium plant response rating ([13]; 31 g ai/ha): 80; Kochia plant response rating (kochia (Kochia scoparia) [14]; 31 g ai/ha): 70; Pigweed plant response rating ([15]; 31 g ai/ha): 60; Ragweed plant response rating ([16]; 31 g ai/ha): 70; Ryegrass, It. plant response rating ([17]; 31 g ai/ha): 50; Wheat plant response rating ([18]; 31 g ai/ha): 0
CCc1sc2ncccc2c1-c1c(O)c(C)nn(C)c1=O [Compound 18] | 0 | 0 | 0 | 0 | 0 | 0 | 0 | 0 | 0 | 0 | 0 | 0 | 0 | 0 | 0 | 0 | 0 | 0 | 0 | 0 | Plant response rating (0 to 100 scale), Barnyardgrass ([1]; 500 g ai/ha): 0; Plant response rating (0 to 100 scale), Foxtail, Giant ([2]; 500 g ai/ha): 0; Plant response rating (0 to 100 scale), Kochia (kochia (Kochia scoparia) [3]; 500 g ai/ha): 0; Plant response rating (0 to 100 scale), Pigweed ([4]; 500 g ai/ha): 10; Plant response rating (0 to 100 scale), Ragweed ([5]; 500 g ai/ha): 0; Plant response rating (0 to 100 scale), Ryegrass, It. ([6]; 500 g ai/ha): 0; Barnyardgrass plant response rating ([10]; 500 g ai/ha): 0; Blackgrass plant response rating ([11]; 500 g ai/ha): 0; Corn plant response rating (corn (Zea mays); 500 g ai/ha): 0; Foxtail, Giant plant response rating ([12]; 500 g ai/ha): 0; Galium plant response rating ([13]; 500 g ai/ha): 20; Kochia plant response rating (kochia (Kochia scoparia) [14]; 500 g ai/ha): 0; Pigweed plant response rating ([15]; 500 g ai/ha): 30; Ragweed plant response rating ([16]; 500 g ai/ha): 0; Ryegrass, It. plant response rating ([17]; 500 g ai/ha): 0; Wheat plant response rating ([18]; 500 g ai/ha): 0
CCOC(=O)Oc1c(C)nn(C)c(=O)c1-c1c(CC)sc2ncccc12 [Compound 19] | 0 | 0 | 0 | 0 | 0 | 0 | 0 | 0 | 0 | 0 | 0 | 0 | 0 | 0 | 0 | 0 | 10 | 0 | 0 | 0 | Plant response rating (0 to 100 scale), Barnyardgrass ([1]; 500 g ai/ha): 0; Plant response rating (0 to 100 scale), Foxtail, Giant ([2]; 500 g ai/ha): 0; Plant response rating (0 to 100 scale), Kochia (kochia (Kochia scoparia) [3]; 500 g ai/ha): 0; Plant response rating (0 to 100 scale), Pigweed ([4]; 500 g ai/ha): 20; Plant response rating (0 to 100 scale), Ragweed ([5]; 500 g ai/ha): 0; Plant response rating (0 to 100 scale), Ryegrass, It. ([6]; 500 g ai/ha): 0; Barnyardgrass plant response rating ([10]; 500 g ai/ha): 0; Blackgrass plant response rating ([11]; 500 g ai/ha): 0; Corn plant response rating (corn (Zea mays); 500 g ai/ha): 0; Foxtail, Giant plant response rating ([12]; 500 g ai/ha): 0; Galium plant response rating ([13]; 500 g ai/ha): 20; Kochia plant response rating (kochia (Kochia scoparia) [14]; 500 g ai/ha): 0; Pigweed plant response rating ([15]; 500 g ai/ha): 30; Ragweed plant response rating ([16]; 500 g ai/ha): 0; Ryegrass, It. plant response rating ([17]; 500 g ai/ha): 0; Wheat plant response rating ([18]; 500 g ai/ha): 0
